In one series the test system is HER2 in BT-474 cells. Put plainly: HER2 degradation assay (anti-HER2 FITC flow cytometry). Format: cell-based. The settings on record: Homo sapiens, BT-474, 24 h, 24 h treatment. The protocol:
HER2 positive cells were determined using anti-HER2 conjugated FITC (BD, 540553) according to manufacturer's instruction (BD Biosciences). 0.2×10^6 BT-474 cells were plated in 12-well culture plates in Dulbecco's Modified Eagle's Medium containing 10% fetal bovine serum and 1.5 g/L sodium bicarbonate. Cells were treated with the indicated compounds over a 10-1000 nM concentration range for 24 h. Cells were collected and stained with a FITC-conjugated anti-HER2 antibody for 30 min at room temperature. HER2-positive cells (fluorescence intensity) were determined by flow cytometry (excitation at 495 nm and emission at 529 nm) using a Becton Dickinson LSRII equipped with CellQuest Pro software. […]

Series [1] has as its system retina. Put plainly: Ganetespib 3-month toxicology study, ocular histopathology. Format: in vivo, cynomolgus monkeys. The settings on record: Monkeys (M + F), max. dose 7 mg/kg, 1 hour i.v. infusion, Days 1 & 15 of four 21-day cycles.
Series [2] in a line: Ocular adverse events in clinical studies with ganetespib. Format: in vivo, humans.
For series [3], the system named is retina. Nature of the series: Ganetespib 3-month toxicology study, ocular histopathology. Format: in vivo. Conditions: SD rats (M + F), max. dose 100 mg/kg, 1 hour i.v. infusion, Days 1 & 15 of four 21-day cycles.
The test system of another series is photoreceptors. Put plainly: Photoreceptor degeneration/apoptosis in rat eyes (H&E, TUNEL) after i.v. dosing.

The text below walks through data of patent publication US8628752B2, “Methods of identifying HSP90 inhibitors with less ocular toxicity” (Synta Pharmaceuticals Corp., priority 2011, dated 2014).

“Also recorded” adds a separate entry of the source.

In general, IC50 refers to the concentration that inhibits the measured activity by half. Take `CC(C)c1cc(-c2n[nH]c(=O)n2-c2ccc3c(ccn3C)c2)c(O)cc1O` [Ganetespib, 3-(2,4-dihydroxy-5-isopropyl-phenyl)-4-(1-methyl-indol-5-yl)-5-hydroxy-[1,2,4]triazole]: in the series with HER2 in BT-474 cells, the IC50 came to 0.03 µM. Further, the Ocular histopathology evaluation result in the series with retina [1] is reported as “No changes”. Further, where the note is “SD rats, 20 mg/kg i.v., Cmax & AUCt > human dose”, the “Toxicity: exposure compared with human dose” value is given as “Cmax & AUCt >”. For the same compound, the “Elimination from the retina (in words)” value (rats) is “more rapidly eliminated from the retina”. For the same compound, the “Retina/plasma (R/P) ratio (in words)” value (rats, 6 h post-dose) was “lower R/P ratios”. The “Severity of ocular toxicities in clinical studies (in words)” value in series [2] (clinical studies with ganetespib) was “absence of severe common ocular toxicities”. Further, in series [2] (n = 390, number (%)), the “Chromatopsia, all adverse events, Grade 1” value is reported as 1 (<1%); the “Chromatopsia, related adverse events, Grade 1” value was 1 (<1%); the “Difficulty with night vision, all adverse events, Grade 1” value is on record as 1 (<1%); the “Vision blurred, all adverse events, Grade 1” value was 11 (3%). In addition, in series [2] (n = 390, number (%)), the “Vision blurred, all adverse events, Grade 2” value was 2 (<1%); the “Vision blurred, related adverse events, Grade 1” value is on record as 4 (1%); the “Visual acuity reduced, all adverse events, Grade 1” value was 2 (<1%); the “Visual acuity reduced, related adverse events, Grade 1” value was 1 (<1%). In addition, in series [2] (n = 390, number (%)), the “Visual impairment, all adverse events, Grade 1” value is given as 5 (1%) and the “Visual impairment, related adverse events, Grade 1” value is 2 (<1%). The Ocular histopathology evaluation result in the series with retina [3] is recorded as “No changes”. Moreover, the Photoreceptor degeneration/apoptosis entry in the series with photoreceptors (SD rats, 20 mg/kg i.v.) is “(−) ((−) ≦20 cells/section)”. Moreover, in the series with photoreceptors (rats, i.v., short-term studies), the “Ocular toxicity / photoreceptor injury in rats (in words)” value is given as “absence of ocular effects; also recorded: did not induce ocular toxicity”.
